This is an account of results in publication PMC8955773 (Pharmaceuticals, 2022).

Values joined by “and” are separate entries in the source; they are usually repeats but may differ in a detail not shown here. Equal values may be shown once. “Also recorded” adds a separate entry of the source. Read-outs that look alike come from different tables or passages of the source.

Assay [1] addresses T1, Butyrylcholinesterase (EC 3.1.1.8, BChE) from equine serum (eqBChE) (Equus caballus, UniProt P81908).
T1 construct: Butyrylcholinesterase (EC 3.1.1.8, BChE) was from equine serum (eqBChE) (Sigma-Aldrich); purchased Sigma-Aldrich; host or cells: equine serum
Description: Butyrylcholinesterase inhibition, Ellman's method. The assay is classed as biochemical. The conditions noted are these: for IC50: eqBChE, BTCI substrate, pH 8.0, 37 °C, mean ± SD of three independent experiments. The protocol: The effect of the benzofuran derivatives was evaluated on the commercial enzyme from an animal source due to its low cost and remarkable similarity with the human enzyme.
The cholinesterase inhibition activity was executed using Ellman’s method, as previously described with slight modifications.
S-Butyrylthiocholine iodide (BTCI) and 5,5′-dithiobis-(2-nitrobenzoic) acid (DTNB) (Merck/Sigma-Aldrich) were used for the determination of the BChE activity. Butyrylcholinesterase (EC 3.1.1.8, BChE) was from equine serum (eqBChE) (Sigma-Aldrich). We used 96-well plates for analysis, to each well we added 70 μL phosphate-buffered (0.1 M, pH 8.0), 4 μL different concentration of the tested compounds or dimethyl sulfoxide (for control experiment), 6 μL enzyme (final concentration 0.15 U/mL in buffer), and 100 μL DTNB (1.5 mM final). The solution was preincubated for 5 min at 37 °C, then 20 μL BTCI 1.5 mM solution as the substrate was added to the reaction mixture. The absorbance change was measured at 405 nm, with a microplate reader FLUOstar OPTIMA (BMG Labtech, Offenburg, Germany). […] Each experiment was done in triplicate.
The statistical significance of differences was evaluated using one-way analysis of variation (one-way ANOVA), and Tukey’s multiple comparisons. Results were expressed as mean ± standard deviation (SD), and statistically significant differences were evaluated with p < 0.001 as a minimal significance level.

In assay [2] the target is T1, Butyrylcholinesterase (EC 3.1.1.8, BChE) from equine serum (eqBChE).
The mark [3] stands for this setting: read-out: IC50, inhibitory effect on BChE activity.
Where [4] appears, read: 2-phenylbenzofurans without spacer; cited from earlier work.

T1 sequence (P81908 whole entry): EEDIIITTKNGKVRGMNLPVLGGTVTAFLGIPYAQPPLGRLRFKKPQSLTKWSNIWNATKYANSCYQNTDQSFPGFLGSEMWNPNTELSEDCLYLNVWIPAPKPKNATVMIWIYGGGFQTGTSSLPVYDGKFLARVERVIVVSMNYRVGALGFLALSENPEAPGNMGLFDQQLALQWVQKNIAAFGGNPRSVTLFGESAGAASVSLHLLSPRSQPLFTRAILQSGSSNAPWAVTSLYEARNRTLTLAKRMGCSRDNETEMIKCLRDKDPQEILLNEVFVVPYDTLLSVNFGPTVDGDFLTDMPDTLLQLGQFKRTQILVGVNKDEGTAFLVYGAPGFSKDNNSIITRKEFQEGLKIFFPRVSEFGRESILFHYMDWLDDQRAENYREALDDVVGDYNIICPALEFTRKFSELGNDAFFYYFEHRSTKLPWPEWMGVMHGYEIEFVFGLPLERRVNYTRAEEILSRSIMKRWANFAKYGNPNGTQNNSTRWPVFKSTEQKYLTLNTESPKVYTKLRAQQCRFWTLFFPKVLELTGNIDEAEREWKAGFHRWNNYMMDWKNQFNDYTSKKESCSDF

For the compound `Oc1ccc(Cc2cc3cc(Cl)ccc3o2)cc1` [Compound 11B], the IC50 in assay [1] (setting [3]) came to 55.7 ± 0.8 µM.
Turning to `Oc1ccc(-c2cc3cc(Br)ccc3o2)cc1` [Compound 9A], the “BChE inhibitory activity (in words)” value in assay [2] (setting [4]) is “no activity; also recorded: negligible inhibitory activity; also recorded: no BChE inhibition”. Also, the half-maximal inhibitory concentration (IC50) in assay [2] (read-out: IC50, inhibitory effect on BChE activity; 2-phenylbenzofurans given for comparison; cited from earlier work) was more than 100 µM.
For `Oc1ccc(Cc2cc3cccc(Cl)c3o2)cc1` [Compound 12B], the half-inhibitory concentration (IC50) in assay [1] (setting [3]) was determined as 43 ± 5.65 µM.
Still for that read-out and setting: to `Oc1cccc(Cc2cc3cc(Cl)ccc3o2)c1` [Compound 15B, 5-chloro-2-(3-hydroxybenzyl)benzofuran] belongs 27.8 ± 3.07 µM.
Turning to `Oc1cccc(Cc2cc3cc(Br)ccc3o2)c1` [Compound 13B], the concentration for half-maximal inhibition (IC50) in assay [1] (setting [3]) turned out to be 39.9 ± 4.31 µM.
Consider `Oc1ccc(-c2cc3cc(Cl)ccc3o2)cc1` [Compound 11A], for which the IC50 in assay [2] (2-phenylbenzofurans given for comparison; read-out: IC50, inhibitory effect on BChE activity; cited from earlier work) was more than 100 µM.
As for `Oc1cccc(-c2cc3cc(Br)ccc3o2)c1` [Compound 13A], in assay [1] (IC50, inhibitory effect on BChE activity), the 50% inhibitory concentration (IC50) came to 10.6 ± 1.65 µM.
On to `Oc1cccc(Cc2cc3cccc(Cl)c3o2)c1` [Compound 16B], for which the IC50 in assay [1] (setting [3]) stood at 61.7 ± 5.9 µM.
Regarding `Oc1ccc(Cc2cc3cc(Br)ccc3o2)cc1` [Compound 9B, 5-bromo-2-(4-hydroxybenzyl)benzofuran], in assay [1] (BChE, ratio of IC50 values), the “inhibitory activity, fold higher than 14A” value is listed as “about 4 fold” and the “inhibitory activity, times higher than galantamine” value is reported as 10 times. The concentration for half-maximal inhibition (IC50) in assay [1] (setting [3]) was 2.93 µM and 2.9 µM.
On to `Oc1ccc(Cc2cc3cccc(Br)c3o2)cc1` [Compound 10B], for which the IC50 in assay [1] (setting [3]) came to 32.6 ± 2.04 µM.
On the same count and under the same terms, the result for `Oc1cccc(Cc2cc3cccc(Br)c3o2)c1` [Compound 14B] reads 31.37 ± 0.15 µM.
Turning to `Oc1ccc(-c2cc3cccc(Br)c3o2)cc1` [Compound 10A], the “BChE inhibitory activity (in words)” value in assay [2] (setting [4]) is listed as “negligible inhibitory activity”.
